Laboratory results published in ChEMBL document CHEMBL4665642, “Anticancer profile of newly synthesized BRAF inhibitors possess 5-(pyrimidin-4-yl)imidazo[2,1-b]thiazole scaffold” (Bioorg Med Chem, 2019).

What was measured:
Type in all cases: functional
Conditions in all cases: read-out: Activity
[1] = test system: T47D; test: Cytotoxicity against human T47D cells assessed as cell viability at 10 uM incubated for 48 hrs by sulforhodamine B assay relative to control
[2] = test system: BT-549; test: Cytotoxicity against human BT-549 cells assessed as cell viability at 10 uM incubated for 48 hrs by sulforhodamine B assay relative to control
[3] = test system: Hs-578T; test: Cytotoxicity against human HS-578T cells assessed as cell viability at 10 uM incubated for 48 hrs by sulforhodamine B assay relative to control
[4] = test system: MDA-MB-231; test: Cytotoxicity against human MDA-MB-231 cells assessed as cell viability at 10 uM incubated for 48 hrs by sulforhodamine B assay relative to control
[5] = test system: MCF7; test: Cytotoxicity against human MCF7 cells assessed as cell viability at 10 uM incubated for 48 hrs by sulforhodamine B assay relative to control
[6] = test system: DU-145; test: Cytotoxicity against human DU-145 cells assessed as cell viability at 10 uM incubated for 48 hrs by sulforhodamine B assay relative to control
[7] = test system: PC-3; test: Cytotoxicity against human PC-3 cells assessed as cell viability at 10 uM incubated for 48 hrs by sulforhodamine B assay relative to control
[8] = test system: UO-31; test: Cytotoxicity against human UO-31 cells assessed as cell viability at 10 uM incubated for 48 hrs by sulforhodamine B assay relative to control
[9] = test system: TK-10; test: Cytotoxicity against human TK-10 cells assessed as cell viability at 10 uM incubated for 48 hrs by sulforhodamine B assay relative to control
[10] = test system: SN12C; test: Cytotoxicity against human SN12C cells assessed as cell viability at 10 uM incubated for 48 hrs by sulforhodamine B assay relative to control
[11] = test system: RXF 393; test: Cytotoxicity against human RXF 393 cells assessed as cell viability at 10 uM incubated for 48 hrs by sulforhodamine B assay relative to control
[12] = test system: 786-0; test: Cytotoxicity against human 786-0 cells assessed as cell viability at 10 uM incubated for 48 hrs by sulforhodamine B assay relative to control
[13] = test system: SK-OV-3; test: Cytotoxicity against human SK-OV-3 cells assessed as cell viability at 10 uM incubated for 48 hrs by sulforhodamine B assay relative to control
[14] = test system: NCI/ADR-RES; test: Cytotoxicity against human NCI/ADR-RES cells assessed as cell viability at 10 uM incubated for 48 hrs by sulforhodamine B assay relative to control
[15] = test system: OVCAR-5; test: Cytotoxicity against human OVCAR-5 cells assessed as cell viability at 10 uM incubated for 48 hrs by sulforhodamine B assay relative to control
[16] = test system: OVCAR-4; test: Cytotoxicity against human OVCAR-4 cells assessed as cell viability at 10 uM incubated for 48 hrs by sulforhodamine B assay relative to control
[17] = test system: OVCAR-3; test: Cytotoxicity against human OVCAR-3 cells assessed as cell viability at 10 uM incubated for 48 hrs by sulforhodamine B assay relative to control
[18] = test system: IGROV-1; test: Cytotoxicity against human IGROV-1 cells assessed as cell viability at 10 uM incubated for 48 hrs by sulforhodamine B assay relative to control
[19] = test system: UACC-62; test: Cytotoxicity against human UACC-62 cells assessed as cell viability at 10 uM incubated for 48 hrs by sulforhodamine B assay relative to control
[20] = test system: SK-MEL-5; test: Cytotoxicity against human SK-MEL-5 cells assessed as cell viability at 10 uM incubated for 48 hrs by sulforhodamine B assay relative to control
[21] = test system: SK-MEL-28; test: Cytotoxicity against human SK-MEL-28 cells assessed as cell viability at 10 uM incubated for 48 hrs by sulforhodamine B assay relative to control
[22] = test system: M14; test: Cytotoxicity against human M14 cells assessed as cell viability at 10 uM incubated for 48 hrs by sulforhodamine B assay relative to control
[23] = test system: Malme-3M; test: Cytotoxicity against human Malme-3M cells assessed as cell viability at 10 uM incubated for 48 hrs by sulforhodamine B assay relative to control
[24] = test system: HL-60(TB); test: Cytotoxicity against human HL-60(TB) cells assessed as cell viability at 10 uM incubated for 48 hrs by sulforhodamine B assay relative to control
[25] = test system: K562; test: Cytotoxicity against human K562 cells assessed as cell viability at 10 uM incubated for 48 hrs by sulforhodamine B assay relative to control
[26] = test system: MOLT-4; test: Cytotoxicity against human MOLT-4 cells assessed as cell viability at 10 uM incubated for 48 hrs by sulforhodamine B assay relative to control
[27] = test system: RPMI-8226; test: Cytotoxicity against human RPMI-8226 cells assessed as cell viability at 10 uM incubated for 48 hrs by sulforhodamine B assay relative to control
[28] = test system: A549; test: Cytotoxicity against human A549 cells assessed as cell viability at 10 uM incubated for 48 hrs by sulforhodamine B assay relative to control
[29] = test system: HOP-62; test: Cytotoxicity against human HOP-62 cells assessed as cell viability at 10 uM incubated for 48 hrs by sulforhodamine B assay relative to control
[30] = test system: HOP-92; test: Cytotoxicity against human HOP-92 cells assessed as cell viability at 10 uM incubated for 48 hrs by sulforhodamine B assay relative to control
[31] = test system: NCI-H226; test: Cytotoxicity against human NCI-H226 cells assessed as cell viability at 10 uM incubated for 48 hrs by sulforhodamine B assay relative to control
[32] = test system: NCI-H460; test: Cytotoxicity against human NCI-H460 cells assessed as cell viability at 10 uM incubated for 48 hrs by sulforhodamine B assay relative to control
[33] = test system: COLO 205; test: Cytotoxicity against human COLO 205 cells assessed as cell viability at 10 uM incubated for 48 hrs by sulforhodamine B assay relative to control
[34] = test system: HCT-15; test: Cytotoxicity against human HCT-15 cells assessed as cell viability at 10 uM incubated for 48 hrs by sulforhodamine B assay relative to control
[35] = test system: HCT-29; test: Cytotoxicity against human […] cells assessed as cell viability at 10 uM incubated for 48 hrs by sulforhodamine B assay relative to control
[36] = test system: KM12; test: Cytotoxicity against human KM12 cells assessed as cell viability at 10 uM incubated for 48 hrs by sulforhodamine B assay relative to control
[37] = test system: SW-620; test: Cytotoxicity against human SW-620 cells assessed as cell viability at 10 uM incubated for 48 hrs by sulforhodamine B assay relative to control
[38] = test system: SF-268; test: Cytotoxicity against human SF-268 cells assessed as cell viability at 10 uM incubated for 48 hrs by sulforhodamine B assay relative to control
[39] = test system: SF-539; test: Cytotoxicity against human SF-539 cells assessed as cell viability at 10 uM incubated for 48 hrs by sulforhodamine B assay relative to control
[40] = test system: SNB-19; test: Cytotoxicity against human SNB-19 cells assessed as cell viability at 10 uM incubated for 48 hrs by sulforhodamine B assay relative to control
[41] = test system: SNB-75; test: Cytotoxicity against human SNB-75 cells assessed as cell viability at 10 uM incubated for 48 hrs by sulforhodamine B assay relative to control

`O=S(=O)(NCCNc1nccc(-c2c(-c3cccc(F)c3)nc3sccn23)n1)c1ccc(Br)cc1` gave a viability at 10 µM [1] of 30.5%, a viability at 10 µM [2] of 63.2% and a viability at 10 µM [3] of 63.6%. For the same compound, the viability at 10 µM [4] was 69.7%, the viability at 10 µM [5] was 23.5% and the viability at 10 µM [6] was 52.5%. The viability at 10 µM [7] was 51%, the viability at 10 µM [8] was 21.2% and the viability at 10 µM [9] was 68.8%. It also gave a viability at 10 µM [10] of 42.9%, a viability at 10 µM [11] of 72.7% and a viability at 10 µM [12] of 50.6%. For the same compound, the viability at 10 µM [13] was 77.3%, the viability at 10 µM [14] was 61.8% and the viability at 10 µM [15] was 83.6%. For the same compound, the viability at 10 µM [16] was 47%, the viability at 10 µM [17] was 62.4% and the viability at 10 µM [18] was 8.47%. For the same compound, the viability at 10 µM [19] was 35.8%, the viability at 10 µM [20] was 31.5% and the viability at 10 µM [21] was 69.1%. For the same compound, the viability at 10 µM [22] was 52.3%, the viability at 10 µM [23] was 71.1% and the viability at 10 µM [24] was 90.5%. It also gave a viability at 10 µM [25] of 38.7%, a viability at 10 µM [26] of 35.7% and a viability at 10 µM [27] of 58%. For the same compound, the viability at 10 µM [28] was 34.1%, the viability at 10 µM [29] was 83.3% and the viability at 10 µM [30] was 76.7%. It also gave a viability at 10 µM [31] of 41.2%, a viability at 10 µM [32] of 27.8% and a viability at 10 µM [33] of 36.4%. It also gave a viability at 10 µM [34] of 29.2%, a viability at 10 µM [35] of 28.2% and a viability at 10 µM [36] of 42.5%. For the same compound, the viability at 10 µM [37] was 54.8%, the viability at 10 µM [38] was 53% and the viability at 10 µM [39] was 76.4%. For the same compound, the viability at 10 µM [40] was 59.3% and the viability at 10 µM [41] was 75.3%.

Compound `O=C(NCCCNc1nccc(-c2c(-c3cccc(F)c3)nc3sccn23)n1)C1CCCCC1` has a viability at 10 µM [1] of 37.8%, a viability at 10 µM [2] of 78.6% and a viability at 10 µM [3] of 80.2%. It also gave a viability at 10 µM [4] of 80.6%, a viability at 10 µM [5] of 36.5% and a viability at 10 µM [6] of 92.2%. For the same compound, the viability at 10 µM [7] was 73.9%, the viability at 10 µM [8] was 41% and the viability at 10 µM [9] was 78.9%. For the same compound, the viability at 10 µM [10] was 67.3%, the viability at 10 µM [11] was 94.3% and the viability at 10 µM [12] was 62.1%. It also gave a viability at 10 µM [13] of 87.7%, a viability at 10 µM [14] of 72.6% and a viability at 10 µM [15] of 105%. For the same compound, the viability at 10 µM [16] was 85.9%, the viability at 10 µM [17] was 82.1% and the viability at 10 µM [18] was 37.5%. For the same compound, the viability at 10 µM [19] was 36.4%, the viability at 10 µM [20] was 52.9% and the viability at 10 µM [21] was 84.5%. For the same compound, the viability at 10 µM [22] was 57.6%, the viability at 10 µM [23] was 74.7% and the viability at 10 µM [24] was 111%. It also gave a viability at 10 µM [25] of 65.4%, a viability at 10 µM [26] of 69.5% and a viability at 10 µM [27] of 80%. It also gave a viability at 10 µM [28] of 51.6%, a viability at 10 µM [29] of 98.2% and a viability at 10 µM [30] of 105%. It also gave a viability at 10 µM [31] of 63.6%, a viability at 10 µM [32] of 60% and a viability at 10 µM [33] of 49.8%. The viability at 10 µM [34] was 58%, the viability at 10 µM [35] was 40.1% and the viability at 10 µM [36] was 84.5%. For the same compound, the viability at 10 µM [37] was 82.1%, the viability at 10 µM [38] was 80.2% and the viability at 10 µM [39] was 100%. The viability at 10 µM [40] was 89.8% and the viability at 10 µM [41] was 87.7%.

`O=C(NCCCNc1nccc(-c2c(-c3cccc(F)c3)nc3sccn23)n1)c1ccc(F)cc1` gave a viability at 10 µM [1] of 50.6%, a viability at 10 µM [2] of 85.2% and a viability at 10 µM [3] of 83.2%. The viability at 10 µM [4] was 120%, the viability at 10 µM [5] was 71.9% and the viability at 10 µM [6] was 81.2%. The viability at 10 µM [7] was 76.2%, the viability at 10 µM [8] was 36.9% and the viability at 10 µM [9] was 95.9%. It also gave a viability at 10 µM [10] of 75.8%, a viability at 10 µM [11] of 77.3% and a viability at 10 µM [12] of 62.5%. The viability at 10 µM [13] was 66.3%, the viability at 10 µM [14] was 78.8% and the viability at 10 µM [15] was 141%. The viability at 10 µM [16] was 81.6%, the viability at 10 µM [17] was 74.1% and the viability at 10 µM [18] was 49.4%. For the same compound, the viability at 10 µM [19] was 67.8%, the viability at 10 µM [20] was 67.8% and the viability at 10 µM [21] was 106%. It also gave a viability at 10 µM [22] of 85.3%, a viability at 10 µM [23] of 140% and a viability at 10 µM [24] of 110%. The viability at 10 µM [25] was 75.7%, the viability at 10 µM [26] was 44.5% and the viability at 10 µM [27] was 87.2%. For the same compound, the viability at 10 µM [28] was 76.3%, the viability at 10 µM [29] was 119% and the viability at 10 µM [30] was 111%. The viability at 10 µM [31] was 69%, the viability at 10 µM [32] was 95.2% and the viability at 10 µM [33] was 64.7%. It also gave a viability at 10 µM [34] of 65.2%, a viability at 10 µM [35] of 60.8% and a viability at 10 µM [36] of 89%. The viability at 10 µM [37] was 115%, the viability at 10 µM [38] was 71% and the viability at 10 µM [39] was 99.4%. For the same compound, the viability at 10 µM [40] was 89% and the viability at 10 µM [41] was 83.9%.
